Results from ChEMBL document CHEMBL1201862, “PubChem BioAssay data set” (2004).
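Protocol summary: plate cells (96-well), add compound at 5 concentrations, incubate 48 h, interpolate endpoints linearly. GI50 = concentration required for 50% inhibition of growth.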 The source made the active and inactive calls. No stated cut-off is given here; in the data, active = GI50 up to about 1.1 µM and inactive = higher.

Tests used:
Test in all cases: NCI tumour cell line growth inhibition, 48 h
[1] = tested on: NCI-H460
[2] = tested on: OVCAR-5
[3] = tested on: MOLT-4
[4] = tested on: HOP-62
[5] = tested on: HT-29
[6] = tested on: HCC 2998
[7] = tested on: SK-MEL-28
[8] = tested on: M14
[9] = tested on: UACC-62
[10] = tested on: TK-10
[11] = tested on: SW-620
[12] = tested on: OVCAR-3
[13] = tested on: CCRF-CEM
[14] = tested on: IGROV-1
[15] = tested on: COLO 205
[16] = tested on: OVCAR-4
[17] = tested on: OVCAR-8
[18] = tested on: SNB-75

Measured: GI50

Cc1ccc(NC(=O)CCC(=O)C2CC(=O)CCC2=O)cc1C (stereo not given)
inactive: [1] > 100 µM | [2] > 100 µM | [3] > 100 µM | [4] > 100 µM | [5] > 100 µM | [6] > 100 µM | [7] > 100 µM | [8] > 100 µM | [9] > 100 µM | [10] > 100 µM | [11] > 100 µM | [12] > 100 µM | [13] > 100 µM | [14] > 100 µM | [15] > 100 µM | [16] > 100 µM | [17] > 100 µM

C[C@@H]1C(=O)O[C@H]1[C@H](O)CO
inactive: [1] > 100 µM | [2] > 100 µM | [3] 34.1 µM | [4] > 100 µM | [6] > 100 µM | [7] > 100 µM | [8] > 100 µM | [9] > 100 µM | [10] > 100 µM | [11] > 100 µM | [18] > 100 µM | [12] > 100 µM | [13] > 100 µM | [15] > 100 µM | [16] > 100 µM | [17] > 100 µM

CN(/N=C/c1ccnc2ccccc12)c1c([N+](=O)[O-])cc([N+](=O)[O-])cc1[N+](=O)[O-]
inactive: [1] > 100 µM | [2] > 100 µM | [3] 28.1 µM | [4] 88.3 µM | [5] > 100 µM | [6] > 100 µM | [7] 60.5 µM | [8] 43.3 µM | [9] > 100 µM | [10] > 100 µM | [11] 38.5 µM | [18] > 100 µM | [12] 41.6 µM | [13] 18.3 µM | [14] > 100 µM | [15] > 100 µM | [16] 53.7 µM | [17] 98.2 µM

CC(=O)O[C@H]1CC[C@@]2(C)C(=CC[C@@H]3C2CC[C@]2(C)Nc4oncc4CC32)C1 (stereo not given in full)
inactive: [1] 20.3 µM | [2] > 100 µM | [3] 10.7 µM | [4] 49.2 µM | [5] 30.1 µM | [6] > 100 µM | [7] 37.2 µM | [8] 31.8 µM | [9] 27.5 µM | [10] 49.2 µM | [11] 43.3 µM | [18] 24.2 µM | [12] 16.3 µM | [13] 4.85 µM | [14] 28.1 µM | [16] 16.8 µM | [17] 34.6 µM

Cn1cc2ccccc2c1-c1nc(F)nc(Oc2ccc3c(c2)CC[C@@H]2C3CC[C@@]3(C)C2C[C@H](O)[C@@H]3O)n1 (stereo not given in full)
inactive: [1] 30.9 µM | [2] 19.2 µM | [3] 5.43 µM | [4] 4.45 µM | [5] 19.3 µM | [6] 15.4 µM | [7] 19.7 µM | [8] 15.9 µM | [9] 17.5 µM | [10] 20.4 µM | [11] 4.14 µM | [18] 20.5 µM | [12] 20.7 µM | [13] 2.66 µM | [14] 20.7 µM | [15] 17.7 µM | [17] 15.8 µM

NC(=O)c1ccccc1NC(=O)C(=O)Cc1nc2ccccc2nc1O
inactive: [1] > 100 µM | [2] 96.2 µM | [3] > 100 µM | [4] > 100 µM | [6] > 100 µM | [7] > 100 µM | [8] > 100 µM | [9] > 100 µM | [10] > 100 µM | [11] > 100 µM | [18] 60.8 µM | [12] > 100 µM | [13] > 100 µM | [14] > 100 µM | [15] > 100 µM | [16] > 100 µM | [17] 50 µM

O=C(O)/C(=C/C=C/c1ccccc1)c1csc(-c2nc(/C(=C\C=C\c3ccccc3)C(=O)O)cs2)n1
inactive: [1] 40.8 µM | [2] > 100 µM | [3] 1.69 µM | [4] 18 µM | [5] 38.2 µM | [6] 20.1 µM | [7] 33 µM | [8] 22.9 µM | [9] 28.8 µM | [10] > 100 µM | [11] 39.4 µM | [18] 28.1 µM | [12] 23.4 µM | [13] 19.7 µM | [14] 32.7 µM | [15] 22.3 µM | [17] 44.8 µM

CCCCCN(CCCCC)C(=O)[C@H](CCC(=O)OCc1ccccc1)NC(=O)c1cc2ccccc2[nH]1
inactive: [1] > 100 µM | [2] > 100 µM | [3] > 100 µM | [4] > 100 µM | [5] > 100 µM | [6] > 100 µM | [7] > 100 µM | [8] > 100 µM | [9] > 100 µM | [11] > 100 µM | [18] > 100 µM | [12] > 100 µM | [13] > 100 µM | [14] > 100 µM | [15] > 100 µM | [16] > 100 µM | [17] > 100 µM

COc1cccc(C2=NC(C(C)C)CO2)c1OC (stereo not given)
inactive: [1] > 100 µM | [2] > 100 µM | [3] > 100 µM | [4] > 100 µM | [5] > 100 µM | [6] > 100 µM | [7] > 100 µM | [8] > 100 µM | [9] > 100 µM | [10] > 100 µM | [11] > 100 µM | [18] > 100 µM | [12] > 100 µM | [13] > 100 µM | [14] > 100 µM | [15] > 100 µM | [16] > 100 µM | [17] > 100 µM

COC(=O)[C@H]1C2CC[C@@H]3C45C[C@@H](c6ccoc6)O[C@@H]4O[C@@H](O2)C31CCC5C (stereo not given in full)
inactive: [1] > 100 µM | [2] > 100 µM | [3] 69.7 µM | [4] > 100 µM | [5] > 100 µM | [6] 95.9 µM | [8] > 100 µM | [9] > 100 µM | [10] > 100 µM | [11] > 100 µM | [12] > 100 µM | [13] 56.4 µM | [14] > 100 µM | [15] > 100 µM | [16] > 100 µM | [17] > 100 µM

C=CCCCCCCCC(O)C1C[C@H](O)C(CCCCC)O1 (stereo not given in full)
inactive: [1] 18.9 µM | [3] 17.7 µM | [5] 18.6 µM | [6] 17.9 µM | [7] 17.9 µM | [8] 17.7 µM | [9] 15 µM | [10] 19 µM | [11] 21.1 µM | [18] 15.2 µM | [12] 17.5 µM | [13] 19.3 µM | [14] 20.2 µM | [15] 18.5 µM | [17] 19.9 µM
